We go through three molecules from BindingDB's records for doi:10.1016/0960-894X(95)00549-9 (1996).

This assay has as its target T1, Bile salt-activated lipase (Bos taurus, UniProt P30122).
T1 sequence (P30122 whole entry): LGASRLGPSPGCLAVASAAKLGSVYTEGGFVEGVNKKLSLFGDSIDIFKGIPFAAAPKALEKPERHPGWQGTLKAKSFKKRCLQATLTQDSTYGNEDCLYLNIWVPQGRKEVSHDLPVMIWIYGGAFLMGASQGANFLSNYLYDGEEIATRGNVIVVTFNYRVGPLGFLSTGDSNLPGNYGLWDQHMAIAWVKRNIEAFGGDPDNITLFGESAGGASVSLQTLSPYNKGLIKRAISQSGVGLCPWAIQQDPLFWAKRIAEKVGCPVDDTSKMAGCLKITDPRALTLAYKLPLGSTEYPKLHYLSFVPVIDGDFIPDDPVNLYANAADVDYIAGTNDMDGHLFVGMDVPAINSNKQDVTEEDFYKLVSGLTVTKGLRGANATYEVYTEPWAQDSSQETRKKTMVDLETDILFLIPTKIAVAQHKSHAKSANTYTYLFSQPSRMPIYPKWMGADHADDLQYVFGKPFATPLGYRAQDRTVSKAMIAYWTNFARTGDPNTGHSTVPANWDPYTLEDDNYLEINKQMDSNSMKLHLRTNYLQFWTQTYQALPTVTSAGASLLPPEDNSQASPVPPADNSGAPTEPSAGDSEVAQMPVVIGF
Briefly: Bimolecular rate constant (ki) for the Pancreatic cholesterol esterase-catalyzed hydrolysis of 4-nitrophenyl butyrate. The note with it: for kon: read-out: kon (M-1-s-1).

The term kon denotes the second-order rate constant of association. Regarding `CCCCNC(=O)Oc1ccc2ccccc2c1-c1c(O)ccc2ccccc12` [Butyl-carbamic acid 2'-hydroxy-[1,1']binaphthalenyl-2-yl ester], the “kon (M-1-s-1)” value was 500000.000000 M-1-s-1 and the kon came to 500000 M⁻¹ s⁻¹.
Consider `CCCCNC(=O)Oc1ccc2ccccc2c1-c1c(OC(=O)NCCCC)ccc2ccccc12` [Butyl-carbamic acid 2'-butylcarbamoyloxy-[1,1']binaphthalenyl-2-yl ester], for which the “kon (M-1-s-1)” value is listed as 4000 M-1-s-1 and the kon is 4000 M⁻¹ s⁻¹.
In the case of `CCCCNC(=O)Oc1ccc2ccccc2c1-c1c(OC(=O)CCC)ccc2ccccc12` [Butyric acid 2'-butylcarbamoyloxy-[1,1']binaphthalenyl-2-yl ester], the “kon (M-1-s-1)” value was 6000 M-1-s-1 and the kon turned out to be 6000 M⁻¹ s⁻¹.
